Like-named read-outs stand apart in the source and are kept apart here.
What was measured:
[1] = test system: KRas-mediated Phosphorylation of ERK in H358 cells; test: Cisbio HTRF pERK assay, H358 cells; type: cell-based; details: H358 cells, 3 hrs compound, read-out: Inhibition (HTRF IC50 nM) of KRas-mediated Phosphorylation of ERK, H358
KRas^G12S = biological target: T1, KRas^G12S (Homo sapiens, UniProt P01116, G12S); test: KRas TR-FRET tracer displacement binding assay, G12S; details: 60-minute incubation
T1 construct: Biotinylated KRas (corresponding to amino acids 1-169, produced at Accelegan Inc.); biotin (biotinylated); purchased Accelegan Inc
T1 sequence (P01116 1-169 isoform P01116-2 G12S): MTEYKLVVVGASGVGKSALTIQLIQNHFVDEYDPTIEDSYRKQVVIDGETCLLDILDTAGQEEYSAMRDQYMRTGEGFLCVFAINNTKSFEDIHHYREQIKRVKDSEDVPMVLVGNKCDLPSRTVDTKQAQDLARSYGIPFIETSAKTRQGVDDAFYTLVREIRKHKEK
Protocol: (§1) KRas^WT, KRas^G12A, KRas^G12C, KRas^G12D, KRas^G12R, KRas^G12S, KRas^G12V, KRas^G13D, or KRas^Q61H was used in the assay.
(§2) The ability of a compound to bind to KRas was measured using a TR-FRET displacement assay. Biotinylated KRas (corresponding to amino acids 1-169, produced at Accelegan Inc.) was incubated with custom made Cy5 labelled tracer, terbium streptavidin (Cisbio Inc.) and compound (1% DMSO final) in buffer (50 mM HEPES, pH 7.5, 5 mM MgCl2, 0.005% Tween-20 and 1 mM DTT). After a 60-minute incubation at room temperature, the reaction was measured using a BMG LABTECH CLARIO star Plus via TR-FRET.

KRas^G12V = biological target: T2, KRas^G12V (Homo sapiens, UniProt P01116, G12V); test: KRas TR-FRET tracer displacement binding assay, G12V; details: 60-minute incubation
T2 construct: Biotinylated KRas (corresponding to amino acids 1-169, produced at Accelegan Inc.); biotin (biotinylated); purchased Accelegan Inc
T2 sequence (P01116 1-169 isoform P01116-2 G12V): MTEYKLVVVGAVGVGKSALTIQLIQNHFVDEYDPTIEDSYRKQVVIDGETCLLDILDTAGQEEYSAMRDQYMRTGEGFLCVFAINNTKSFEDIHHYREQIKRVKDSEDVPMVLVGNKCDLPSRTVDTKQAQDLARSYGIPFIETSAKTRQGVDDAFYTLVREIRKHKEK
Protocol: as §1, §2

[2] = test system: KRas-mediated Phosphorylation of ERK in H727 cells; test: Cisbio HTRF pERK assay, H727 cells; type: cell-based; details: 3 hrs compound, read-out: Inhibition (HTRF IC50 nM) of KRas-mediated Phosphorylation of ERK, H727
KRas^WT = biological target: T3, KRas^WT (Homo sapiens, UniProt P01116); test: KRas TR-FRET tracer displacement binding assay, WT; details: 60-minute incubation
T3 construct: Biotinylated KRas (corresponding to amino acids 1-169, produced at Accelegan Inc.); biotin (biotinylated); purchased Accelegan Inc
T3 sequence (P01116 1-169 isoform P01116-2): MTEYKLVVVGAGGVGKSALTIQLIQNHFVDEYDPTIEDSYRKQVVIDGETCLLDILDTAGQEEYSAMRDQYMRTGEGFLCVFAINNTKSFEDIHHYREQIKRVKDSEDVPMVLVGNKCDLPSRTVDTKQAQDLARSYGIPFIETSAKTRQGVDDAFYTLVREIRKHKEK
Protocol: as §1, §2

KRas^G12C = biological target: T4, KRas^G12C (Homo sapiens, UniProt P01116, G12C); test: KRas TR-FRET tracer displacement binding assay, G12C; details: 60-minute incubation
T4 construct: Biotinylated KRas (corresponding to amino acids 1-169, produced at Accelegan Inc.); biotin (biotinylated); purchased Accelegan Inc
T4 sequence (P01116 1-169 isoform P01116-2 G12C): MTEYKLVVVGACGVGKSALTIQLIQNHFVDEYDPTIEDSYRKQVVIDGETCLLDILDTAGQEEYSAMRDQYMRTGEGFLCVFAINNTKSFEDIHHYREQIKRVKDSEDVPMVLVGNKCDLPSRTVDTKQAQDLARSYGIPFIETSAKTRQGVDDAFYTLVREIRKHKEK
Protocol: as §1, §2

[3] = test system: KRas-mediated Phosphorylation of ERK in AsPC-1 cells; test: Cisbio HTRF pERK assay, AsPC-1 cells; type: cell-based; details: 3 hrs compound, read-out: Inhibition (HTRF IC50 nM) of KRas-mediated Phosphorylation of ERK, AsPC-1
KRas^G12D = biological target: T5, KRas^G12D (Homo sapiens, UniProt P01116, G12D); test: KRas TR-FRET tracer displacement binding assay, G12D; details: 60-minute incubation
T5 construct: Biotinylated KRas (corresponding to amino acids 1-169, produced at Accelegan Inc.); biotin (biotinylated); purchased Accelegan Inc
T5 sequence (P01116 1-169 isoform P01116-2 G12D): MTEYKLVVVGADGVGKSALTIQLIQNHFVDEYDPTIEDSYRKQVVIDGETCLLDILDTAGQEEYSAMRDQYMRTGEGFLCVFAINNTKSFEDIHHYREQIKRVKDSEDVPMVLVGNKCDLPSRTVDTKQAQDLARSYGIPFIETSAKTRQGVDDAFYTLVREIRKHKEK
Protocol: as §1, §2

[4] = test system: KRas-mediated Phosphorylation of ERK in A549 cells; test: Cisbio HTRF pERK assay, A549 cells; type: cell-based; details: A549 cells, 3 hrs compound, read-out: Inhibition (HTRF IC50 nM) of KRas-mediated Phosphorylation of ERK, A549
[5] = test system: KRas-mediated Phosphorylation of ERK in HCT116 cells; test: Cisbio HTRF pERK assay, HCT116 cells; type: cell-based; details: Homo sapiens, HCT-116, 3 h, HCT116 cells, 3 hrs compound; read-out: Inhibition (HTRF IC50 nM) of KRas-mediated Phosphorylation of ERK, HCT116
[6] = test system: KRas-mediated Phosphorylation of ERK in H460 cells; test: Cisbio HTRF pERK assay, H460 cells; type: cell-based; details: Homo sapiens, NCI-H460, 3 h, H460 cells, 3 hrs compound; read-out: Inhibition (HTRF IC50 nM) of KRas-mediated Phosphorylation of ERK, H460
[7] = test system: KRas-mediated Phosphorylation of ERK in PSN1 cells; test: Cisbio HTRF pERK assay, PSN1 cells; type: cell-based; details: Homo sapiens, PSN1, 3 h, 3 hour compound, read-out: Inhibition (HTRF IC50 nM) of KRas-mediated Phosphorylation of ERK, PSN1
Protocol: Inhibition of KRas Phosphorylation of ERK (HTRF) by Exemplary Compounds of Formula (I) • Cisbio HTRF Advanced pERK Assay Catalog #64AERPEH • Cell: MKN1, PSN1 • Procedure: • Day 1: Seed 6,000 cells/well −25 μl/well in 384-well white solid bottom plate; RPM1_10% FBS.

SMILES	IC50 [1] [nM]	IC50 (KRas^G12S) [nM]	IC50 (KRas^G12V) [nM]	IC50 [2] [nM]	IC50 (KRas^WT) [nM]	IC50 (KRas^G12C) [nM]	IC50 [3] [nM]	IC50 (KRas^G12D) [nM]	IC50 [4] [nM]	IC50 ([1]; Homo sapiens, NCI-H358, 3 h) [nM]	IC50 ([2]; Homo sapiens, NCI-H727, 3 h) [nM]	IC50 [5] [nM]	IC50 [6] [nM]	IC50 ([3]; Homo sapiens, ASPC1, 3 h) [nM]	IC50 ([4]; Homo sapiens, A549, 3 h) [nM]	IC50 [7] [nM]
N#Cc1c(N)sc2c(F)ccc(-c3c(Cl)cc4c(N5CCCOC6CC65)nc(OC[C@@]56CCCN5C[C@H](F)C6)nc4c3F)c12 (single isomer, unassigned) [Example 212]	22	6	11	357	6	6	230	14	76	–	–	–	–	–	–	–
C=Cc1cc2c(N3CCCn4nc(C(=O)N(C)C)cc4C3)nc(OC[C@@]34CCCN3C[C@H](F)C4)nc2c(F)c1-c1ccc(F)c2sc(N)c(C#N)c12 [Example 176, 5-(7-(2-amino-3-cyano-7-fluorobenzo[b]thiophen-4-yl)-8-fluoro-2-(((2R,7aS)-2-fluorotetrahydro-1H-pyrrolizin-7a(5H)-yl)methoxy)-6-vinylquinazolin-4-yl)-N,N-dimethyl-5,6,7,8-tetrahydro-4H-pyrazolo[1,5-a][1,4]diazepine-2-carboxamide]	–	< 2	< 2	–	< 2	< 2	–	< 2	–	8	23	135	101	10	72	–
CN(C)C(=O)c1cc2n(n1)CCCN(c1nc(OC[C@@]34CCCN3C[C@H](F)C4)nc3c(F)c(-c4ccc(F)c5sc(N)c(C#N)c45)c(C4CC4)cc13)C2 [Example 207, 5-(7-(2-amino-3-cyano-7-fluorobenzo[b]thiophen-4-yl)-6-cyclopropyl-8-fluoro-2-(((2R,7aS)-2-fluorotetrahydro-1H-pyrrolizin-7a(5H)-yl)methoxy)quinazolin-4-yl)-N,N-dimethyl-5,6,7,8-tetrahydro-4H-pyrazolo[1,5-a][1,4]diazepine-2-carboxamide]	–	< 2	< 2	–	< 2	< 2	–	2	–	3	11	42	34	3	22	811
N#Cc1c(N)sc2c(F)ccc(-c3c(C4CC4)cc4c(N5C[C@H]6CC[C@@H](C5)N6)nc(OC[C@@]56CCCN5C[C@H](F)C6)nc4c3F)c12 [Example 208, 4-(4-((1R,5S)-3,8-diazabicyclo[3.2.1]octan-3-yl)-6-cyclopropyl-8-fluoro-2-(((2R,7aS)-2-fluorotetrahydro-1H-pyrrolizin-7a(5H)-yl)methoxy)quinazolin-7-yl)-2-amino-7-fluorobenzo[b]thiophene-3-carbonitrile]	–	4	10.4	–	4	7	–	< 2	–	167	3280	90	260	4	418	2390
CC1CN(C)CCCN1c1nc(N(C)C)c2cc(Cl)c(-c3ccc(F)c4sc(N)c(C#N)c34)c(F)c2n1 (stereo not drawn) [Example 217, 2-amino-4-(6-chloro-2-(2,4-dimethyl-1,4-diazepan-1-yl)-4-(dimethylamino)-8-fluoroquinazolin-7-yl)-7-fluorobenzo[b]thiophene-3-carbonitrile]	–	275	75	–	251	184	–	959	–	–	–	–	–	–	–	–

The remaining lines, values ahead:

IC50 [1] [nM]	IC50 (KRas^G12S) [nM]	IC50 (KRas^G12V) [nM]	IC50 [2] [nM]	IC50 (KRas^WT) [nM]	IC50 (KRas^G12C) [nM]	IC50 [3] [nM]	IC50 (KRas^G12D) [nM]	IC50 [4] [nM]	IC50 ([1]; Homo sapiens, NCI-H358, 3 h) [nM]	IC50 ([2]; Homo sapiens, NCI-H727, 3 h) [nM]	IC50 [5] [nM]	IC50 [6] [nM]	IC50 ([3]; Homo sapiens, ASPC1, 3 h) [nM]	IC50 ([4]; Homo sapiens, A549, 3 h) [nM]	IC50 [7] [nM]	SMILES
160	5	4	767	11	8	761	9	398	–	–	–	–	–	–	–	N#Cc1c(N)sc2c(F)ccc(-c3c(Cl)cc4c(N5CCCOC6CC65)nc(OC[C@@]56CCCN5C[C@H](F)C6)nc4c3F)c12 (single isomer, unassigned) [Example 213]
–	11	13	–	7	12	–	9	–	125	717	275	170	253	326	–	C[C@@]1(O)CCCN(c2nc(OC[C@@]34CCCN3C[C@H](F)C4)nc3c(F)c(-c4ccc(F)c5sc(N)c(C#N)c45)c(F)cc23)C1 [Example 198, 2-amino-4-(6,8-difluoro-2-(((2R,7aS)-2-fluorotetrahydro-1H-pyrrolizin-7a(5H)-yl)methoxy)-4-((R)-3-hydroxy-3-methylpiperidin-1-yl)quinazolin-7-yl)-7-fluorobenzo[b]thiophene-3-carbonitrile]
–	2	3	–	3	3	–	3	–	1780	> 10000	> 10000	5340	4690	> 10000	> 10000	N#Cc1c(N)sc2c(F)ccc(-c3c(Cl)cc4c(NCCS(N)(=O)=O)nc(OC[C@@]56CCCN5C[C@H](F)C6)nc4c3F)c12 [Example 201, 2-((7-(2-amino-3-cyano-7-fluorobenzo[b]thiophen-4-yl)-6-chloro-8-fluoro-2-(((2R,7aS)-2-fluorotetrahydro-1H-pyrrolizin-7a(5H)-yl)methoxy)quinazolin-4-yl)amino)ethane-1-sulfonamide]
–	< 2	3	–	2	3	–	3	–	6	18	25	23	16	34	1180	N#Cc1c(N)sc2c(F)ccc(-c3c(Cl)cc4c(N5CCCCC(F)C5)nc(OC[C@@]56CCCN5C[C@H](F)C6)nc4c3F)c12 (stereo partly drawn) [Example 204, 2-amino-4-(6-chloro-8-fluoro-4-(3-fluoroazepan-1-yl)-2-(((2R,7aS)-2-fluorotetrahydro-1H-pyrrolizin-7a(5H)-yl)methoxy)quinazolin-7-yl)-7-fluorobenzo[b]thiophene-3-carbonitrile]
–	< 2	2	–	< 2	< 2	–	3	–	3	12	18	13	22	15	1270	N#Cc1c(N)sc2c(F)ccc(-c3c(Cl)cc4c(N5CCCOCC5)nc(OC[C@@]56CCCN5C[C@H](F)C6)nc4c3F)c12 [Example 211, 2-amino-4-(6-chloro-8-fluoro-2-(((2R,7aS)-2-fluorotetrahydro-1H-pyrrolizin-7a(5H)-yl)methoxy)-4-(1,4-oxazepan-4-yl)quinazolin-7-yl)-7-fluorobenzo[b]thiophene-3-carbonitrile]

Reference: patent publication US20240025907A1, “QUINAZOLINE PAN-KRas INHIBITORS” (Mirati Therapeutics, Inc., priority 2022, published 2024)
